We go through 21 compounds from ChEMBL document CHEMBL1833969, “Synthesis and antigastric ulcer activity of novel 5-isoproyl-3,8-dimethylazulene derivatives” (2011).

Assay type in all cases: functional
What all share (settings): Stomach

Assay [1] relates to Mus musculus. The assay can be described thus: Antiulcerogenic activity in Kunming mouse assessed as inhibition of ethanol-induced gastric ulcer at 4.3 mg/kg, po qd for 5 days measured 1 hr post last dose relative to control.
For assay [2], the system named is Mus musculus. Kind of assay: Antiulcerogenic activity in Kunming mouse assessed as inhibition of ethanol-induced gastric ulcer at 4.1 mg/kg, po qd for 5 days measured 1 hr post last dose relative to control.
The subject of assay [3] is Mus musculus. Kind of assay: Antiulcerogenic activity in Kunming mouse assessed as inhibition of ethanol-induced gastric ulcer at 3.2 mg/kg, po qd for 5 days measured 1 hr post last dose relative to control.
The subject of assay [4] is Mus musculus. The assay can be described thus: Antiulcerogenic activity in Kunming mouse assessed as inhibition of ethanol-induced gastric ulcer at 4 mg/kg, po qd for 5 days measured 1 hr post last dose relative to control.
In assay [5] the test system is Mus musculus. Kind of assay: Antiulcerogenic activity in Kunming mouse assessed as inhibition of ethanol-induced gastric ulcer at 3.3 mg/kg, po qd for 5 days measured 1 hr post last dose relative to control.
In assay [6] the test system is Mus musculus. The assay can be described thus: Antiulcerogenic activity in Kunming mouse assessed as inhibition of ethanol-induced gastric ulcer at 3.7 mg/kg, po qd for 5 days measured 1 hr post last dose relative to control.
In assay [7] the test system is Mus musculus. Kind of assay: Antiulcerogenic activity in Kunming mouse assessed as inhibition of ethanol-induced gastric ulcer at 3.1 mg/kg, po qd for 5 days measured 1 hr post last dose relative to control.
Assay [8] has as its system Mus musculus. Kind of assay: Antiulcerogenic activity in Kunming mouse assessed as inhibition of ethanol-induced gastric ulcer at 3.6 mg/kg, po qd for 5 days measured 1 hr post last dose relative to control.
Assay [9] has as its system Mus musculus. The assay can be described thus: Antiulcerogenic activity in Kunming mouse assessed as inhibition of ethanol-induced gastric ulcer at 3.9 mg/kg, po qd for 5 days measured 1 hr post last dose relative to control.
Assay [10] has as its system Mus musculus. Kind of assay: Antiulcerogenic activity in Kunming mouse assessed as inhibition of ethanol-induced gastric ulcer at 4.6 mg/kg, po qd for 5 days measured 1 hr post last dose relative to control.
Assay [11] relates to Mus musculus. Kind of assay: Antiulcerogenic activity in Kunming mouse assessed as inhibition of ethanol-induced gastric ulcer at 4.7 mg/kg, po qd for 5 days measured 1 hr post last dose relative to control.
The subject of assay [12] is Mus musculus. Kind of assay: Antiulcerogenic activity in Kunming mouse assessed as inhibition of ethanol-induced gastric ulcer at 4.5 mg/kg, po qd for 5 days measured 1 hr post last dose relative to control.
Assay [13] concerns Mus musculus. The assay can be described thus: Antiulcerogenic activity in Kunming mouse assessed as inhibition of ethanol-induced gastric ulcer at 13.4 mg/kg, po qd for 5 days measured 1 hr post last dose relative to control.
Assay [14] deals with Mus musculus. The assay can be described thus: Antiulcerogenic activity in Kunming mouse assessed as inhibition of ethanol-induced gastric ulcer at 3 mg/kg, po qd for 5 days measured 1 hr post last dose relative to control.

A word on the inhibition in vivo: it is the relative decrease from the control value, in per cent.

Consider `Cc1cc(S(=O)(=O)Nc2cccc(Br)c2)c2c(C)ccc(C(C)C)cc1-2`, for which the inhibition in vivo at 4.3 mg/kg in assay [1] turned out to be 51.3%.
On to `COc1ccc(NS(=O)(=O)c2cc(C)c3cc(C(C)C)ccc(C)c2-3)c(OC)c1`, for which, in [2], the inhibition in vivo at 4.1 mg/kg worked out at 52.8%.
As for `Cc1cc(S(=O)(=O)NC(C)C)c2c(C)ccc(C(C)C)cc1-2`, the inhibition in vivo at 3.2 mg/kg in [3] is 18.7%.
Take `Cc1cc(S(=O)(=O)Nc2cccc3ccccc23)c2c(C)ccc(C(C)C)cc1-2`: the inhibition in vivo at 4 mg/kg in assay [4] came out at 50.5%.
Regarding `Cc1cc(S(=O)(=O)NCC(C)C)c2c(C)ccc(C(C)C)cc1-2`, the inhibition in vivo at 3.3 mg/kg in [5] turned out to be 33.9%.
For `CCCNS(=O)(=O)c1cc(C)c2cc(C(C)C)ccc(C)c1-2`, the inhibition in vivo at 3.2 mg/kg in [3] came to 33%.
Regarding `Cc1ccc(NS(=O)(=O)c2cc(C)c3cc(C(C)C)ccc(C)c2-3)cc1`, the inhibition in vivo at 3.7 mg/kg in [6] came out at 23.1%.
Take `CCNS(=O)(=O)c1cc(C)c2cc(C(C)C)ccc(C)c1-2`: the inhibition in vivo at 3.1 mg/kg in assay [7] was 24.1%.
As for `Cc1cc(S(=O)(=O)NC2CCCCC2)c2c(C)ccc(C(C)C)cc1-2`, the inhibition in vivo at 3.6 mg/kg in assay [8] was 50.9%.
On to `Cc1cc(S(=O)(=O)NCc2ccccc2)c2c(C)ccc(C(C)C)cc1-2`, for which the inhibition in vivo at 3.7 mg/kg in assay [6] is 2.46%.
As for `Cc1cc(S(=O)(=O)Nc2ccc(Cl)cc2)c2c(C)ccc(C(C)C)cc1-2`, the inhibition in vivo at 3.9 mg/kg in [9] stood at 24.8%.
`Cc1cc(S(=O)(=O)Nc2ccc(N)cc2)c2c(C)ccc(C(C)C)cc1-2`: the inhibition in vivo at 3.1 mg/kg in assay [7] is 45.2%.
Consider `Cc1cc(S(=O)(=O)Nc2ccc(/N=C/c3ccccc3)cc2)c2c(C)ccc(C(C)C)cc1-2`, for which, in assay [10], the inhibition in vivo at 4.6 mg/kg amounted to 17.1%.
Consider `Cc1cc(S(=O)(=O)Nc2ccc(/N=C/c3ccccc3O)cc2)c2c(C)ccc(C(C)C)cc1-2`, for which, in assay [11], the inhibition in vivo at 4.7 mg/kg was 28.7%.
Regarding `Cc1cc(S(=O)(=O)Nc2ccc(/N=C/c3cccs3)cc2)c2c(C)ccc(C(C)C)cc1-2`, the inhibition in vivo at 4.6 mg/kg in [10] came out at 50.2%.
As for `COc1ccc(/C=N\NS(=O)(=O)c2cc(C)c3cc(C(C)C)ccc(C)c2-3)cc1`, the inhibition in vivo at 4.1 mg/kg in assay [2] was determined as 4.08%.
On to `Cc1cc(S(=O)(=O)N/N=C\c2ccc(C(F)(F)F)cc2)c2c(C)ccc(C(C)C)cc1-2`, for which the inhibition in vivo at 4.5 mg/kg in [12] amounted to 24.8%.
For `Cc1cc(S(=O)(=O)N/N=C\c2ccccc2O)c2c(C)ccc(C(C)C)cc1-2`, in assay [4], the inhibition in vivo at 4 mg/kg was 12.2%.
For `Cc1cc(S(=O)(=O)N/N=C\c2cccs2)c2c(C)ccc(C(C)C)cc1-2`, the inhibition in vivo at 3.9 mg/kg in assay [9] turned out to be 30.7%.
For `COc1ccc2[nH]c([S+]([O-])Cc3ncc(C)c(OC)c3C)nc2c1` (stereo unspecified) [OMEPRAZOLE], in assay [13], the inhibition in vivo at 13.4 mg/kg was 36.7%.
For the compound `Cc1cc(S(=O)(=O)O)c2c(C)ccc(C(C)C)cc1-2` [SODIUM GUALENATE], in assay [14], the inhibition in vivo at 3 mg/kg came to 32.6%.
